Key:
hypoxia-induced death = test: Protection against hypoxia-induced death (1-minute exposure to 100% nitrogen atmosphere); format: in vivo; conditions: rats
Method: Groups of rats received either water or drug solution in various doses given i.p. at specified times prior to a 1-minute exposure to a 100% nitrogen atmosphere. This 1-minute nitrogen exposure is lethal within 10 minutes to all animals receiving only vehicle. A 25 mg/kg treatment given 15 minutes before nitrogen exposure protected 3 of 8 animals while giving 50 mg/kg protected all animals.

[1] = system: NMDA-evoked release of acetylcholine, rat striatal brain tissue slices; test: Antagonism of NMDA-evoked release of tritiated acetylcholine from striatal slices; format: cell-based; conditions: rat striatal slices preloaded with tritiated choline; 0.5 mM NMDA; 50 μM compound
Method: Slices of rat striatal brain tissue were preloaded with tritiated choline and the release of tritiated acetylcholine evoked by NMDA in the presence or absence of BMY 14802 hydrochloride is measured.

OC(CCCN1CCN(c2ncc(F)cn2)CC1)c1ccc(F)cc1 (stereo not shown) [BMY 14802, 4-[4-(5-fluoro-2-pyrimidinyl)-1-piperazinyl]-1-(4-fluorophenyl)butanol]
animals protected from hypoxia-induced death (hypoxia-induced death; 25 mg/kg i.p. 15 minutes before nitrogen exposure): 3 of 8 | animals protected from hypoxia-induced death (hypoxia-induced death; 25 mg/kg i.p. 30 minutes before nitrogen exposure): 4 of 8 | animals protected from hypoxia-induced death (hypoxia-induced death; 25 mg/kg i.p. 60 minutes before nitrogen exposure): no protection | animals protected from hypoxia-induced death (hypoxia-induced death; 50 mg/kg i.p. 15 minutes before nitrogen exposure): all animals | animals protected from hypoxia-induced death (hypoxia-induced death; 50 mg/kg i.p. 30 minutes before nitrogen exposure): 3 of 8 | animals protected from hypoxia-induced death (hypoxia-induced death; 50 mg/kg i.p. 60 minutes before nitrogen exposure): 2 of 8 | attenuation of acetylcholine release evoked by NMDA [1]: significant attenuation

Reference: US5055470A, “Method of treatment of ischemia in brain” (Bristol-Myers Squibb Co., priority 1989, dated 1991)
